Experimental data as given in patent US9670261B2 (Sanofi, priority 2012, dated 2017).
*1 amine or outer side, *2 acyl side, *3 side chain or, on linkers, in order; H or OH if unused. Where a SMILES comes first, the peptide text is derived from it. Side-chain parts run from the residue outwards. [ ]: non-standard residue; d: D form. The star is where a group is joined. γGlu = O=C(O)[C@H](CCC(=O)[*:2])N[*:1]; Palmitoyl = CCCCCCCCCCCCCCCC(=O)*; Aib = CC(C)(N)C(=O)O

What was measured:
[1] = physchem
[2] = molecular target: T1, human GIP receptor (Homo sapiens, UniProt P48546); assay: cAMP response (HTRF) of HEK-293 cells stably expressing human GIP receptor; type: cell-based; details: Table 7; cAMP formation; read-out: EC50 hGIP R
T1 construct: expressed in transfected cells
T1 sequence (P48546 22-466): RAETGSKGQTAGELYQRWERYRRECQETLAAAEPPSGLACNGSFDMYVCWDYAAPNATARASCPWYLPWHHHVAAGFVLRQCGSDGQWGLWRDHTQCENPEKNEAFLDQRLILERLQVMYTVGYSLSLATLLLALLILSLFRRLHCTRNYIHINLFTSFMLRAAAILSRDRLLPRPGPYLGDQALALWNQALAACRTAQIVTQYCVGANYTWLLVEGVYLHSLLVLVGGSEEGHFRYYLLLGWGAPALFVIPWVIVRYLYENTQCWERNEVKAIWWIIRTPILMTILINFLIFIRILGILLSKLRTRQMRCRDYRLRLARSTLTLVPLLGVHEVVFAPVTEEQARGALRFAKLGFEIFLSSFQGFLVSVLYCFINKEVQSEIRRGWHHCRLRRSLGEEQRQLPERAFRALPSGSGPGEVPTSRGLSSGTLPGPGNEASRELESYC
Outline: (§1)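 After near-confluent growth in DMEM with 10% FBS, cells were washed in Ca/Mg-free PBS, lifted with accutase and diluted to 400000 cells/ml in IBMX (2 mM)-containing HEPES-buffered HBSS with 0.1% BSA. Compounds were applied for 30 minutes at room temperature before homogeneous time-resolved fluorescence quantitation of cAMP.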

[3] = test system: female NMRI-mice; assay: Automated assessment of 22-hours feed intake in mice; type: in vivo; details: 0.1 mg/kg s.c.
Description: Female NMRI-mice of a body weight between 20 and 30 g were used. Mice were adapted to housing conditions for at least one week and for at least one day single-caged in the assessment equipment, when basal data were recorded simultaneously. On the study day, test product was administered subcutaneously close to the lights-off phase (12 h lights off) and assessment of feed consumption was directly started afterwards. Assessment included continued monitoring over 22 hours, while data are processed as mean over every 30 min. Repetition of this procedure over several days was possible. Restriction of assessment to 22 hours was for practical reasons to allow for reweighing of animals, refilling of feed and water and drug administration between procedures. Results could be assessed as cumulated data over 22 hours or differentiated to 30 min intervals. […] Statistical analyses were performed with Everstat 6.0 by two-way ANOVA on repeated measures and Dunnett's post-hoc analyses. Differences were considered statistically significant at the p<0.05 level. […] Lights-off phase (dark phase) started 4 hours later. […].

[4] = test system: female leptin-receptor deficient diabetic db/db mice; assay: Blood glucose and HbA1c in leptin-receptor deficient diabetic db/db mice (method 3); type: in vivo; details: single 100 μg/kg s.c., fed db/db mice
Source text: Female BKS.Cg-m+/+Leprdb/J (db/db) and BKS.Cg-m+/+Leprdb/+(lean control) mice were obtained from Charles River Laboratories, Germany, at an age of 9-10 weeks. The animals were housed in groups in a specific pathogen-free barrier facility on a 12-h light/dark cycle with free access to water and rodent-standard chow. After 1 week of acclimatization, blood samples were drawn from the tail without anaesthesia and blood glucose (method: d-glucose hexokinase, hemolysate, AU640 Beckman Coulter) and HbA1c level (method: hemolysate, Cobas6000 c501, Roche Diagnostics, Germany) were determined. […] The volume of administration was 5 mL/kg. The animals had access to water and chow during the experiment, food consumption was determined at all time points of blood sampling. […] Blood sampling was performed by tail incision without anaesthesia. […] At the end of the study, blood samples (tail, no anaesthesia) were analyzed for glucose and HbA1c. […] Statistical analyses were performed with Everstat 6.0 by repeated measures two-way ANOVA and Dunnett's post-hoc analyses. Differences versus vehicle-treated db/db control mice were considered statistically significant at the p<0.05 level. […] At predefined time points, more blood samples were taken to measure blood glucose and generate the blood glucose profile over 24 h. […] Blood glucose and HbA1c were determined before start of treatment and at the end of the study after 4 weeks of treatment. […] Before treatment started, no significant differences in blood glucose levels could be detected between db/db groups, only the lean control animals had significant lower glucose levels. During the 4 weeks of treatment, glucose levels increased in the vehicle-treated db/db control group, indicating a worsening of the diabetic situation.

[5] = in vivo; details: mouse, sc, 1 mg/kg
Description: (§2) Mice were dosed 1 mg/kg subcutaneously (s.c.). The mice were sacrified and blood samples were collected after 0.25, 0.5, 1, 2, 4, 8, 16 and 24 hours post application. Plasma samples were analyzed after protein precipitation via liquid chromatography mass spectrometry (LC/MS). PK parameters and half-life were calculated using WinonLin Version 5.2.1 (non-compartment model).

[6] = molecular target: T2, human GLP-1 receptor (Homo sapiens, UniProt P43220); assay: cAMP response (HTRF) of HEK-293 cells stably expressing human GLP-1 receptor; type: cell-based; details: Table 7; cAMP formation; read-out: EC50 hGLP-1 R
T2 construct: expressed in transfected cells
Outline: as §1

[7] = Pharmacokinetic testing in mice, s.c.; details: mouse, plasma, sc, 1 mg/kg
Description: as §2

[8] = molecular target: T3, human glucagon receptor (Homo sapiens, UniProt P47871); assay: cAMP response (HTRF) of HEK-293 cells stably expressing human glucagon receptor; type: cell-based; details: Table 7; cAMP formation; read-out: EC50 hGLUC R
T3 construct: expressed in transfected cells
T3 sequence (P47871 26-477): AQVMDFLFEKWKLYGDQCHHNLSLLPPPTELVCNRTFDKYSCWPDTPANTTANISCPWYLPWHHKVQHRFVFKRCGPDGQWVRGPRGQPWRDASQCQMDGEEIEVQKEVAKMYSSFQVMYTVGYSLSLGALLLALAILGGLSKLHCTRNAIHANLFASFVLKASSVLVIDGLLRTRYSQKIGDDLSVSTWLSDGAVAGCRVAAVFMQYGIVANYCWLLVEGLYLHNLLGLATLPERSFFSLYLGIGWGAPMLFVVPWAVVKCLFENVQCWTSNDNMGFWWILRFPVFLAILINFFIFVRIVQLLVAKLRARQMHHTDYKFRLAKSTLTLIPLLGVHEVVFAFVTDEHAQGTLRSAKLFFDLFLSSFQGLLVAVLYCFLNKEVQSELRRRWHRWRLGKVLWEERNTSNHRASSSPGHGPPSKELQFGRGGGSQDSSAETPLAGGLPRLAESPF
Description: cAMP content of cells was determined using a kit from Cisbio Corp. (cat. no. 62AM4PEC) based on HTRF (Homogenous Time Resolved Fluorescence). For preparation, cells were split into T175 culture flasks and grown overnight to near confluency in medium (DMEM/10% FBS). Medium was then removed and cells washed with PBS lacking calcium and magnesium, followed by proteinase treatment with accutase (Sigma-Aldrich cat. no. A6964). Detached cells were washed and resuspended in assay buffer (1×HBSS; 20 mM HEPES, 0.1% BSA, 2 mM IBMX) and cellular density determined. They were then diluted to 400000 cells/ml and 25 μl-aliquots dispensed into the wells of 96-well plates. For measurement, 25 μl of test compound in assay buffer was added to the wells, followed by incubation for 30 minutes at room temperature.

T2 sequence (P43220 24-463): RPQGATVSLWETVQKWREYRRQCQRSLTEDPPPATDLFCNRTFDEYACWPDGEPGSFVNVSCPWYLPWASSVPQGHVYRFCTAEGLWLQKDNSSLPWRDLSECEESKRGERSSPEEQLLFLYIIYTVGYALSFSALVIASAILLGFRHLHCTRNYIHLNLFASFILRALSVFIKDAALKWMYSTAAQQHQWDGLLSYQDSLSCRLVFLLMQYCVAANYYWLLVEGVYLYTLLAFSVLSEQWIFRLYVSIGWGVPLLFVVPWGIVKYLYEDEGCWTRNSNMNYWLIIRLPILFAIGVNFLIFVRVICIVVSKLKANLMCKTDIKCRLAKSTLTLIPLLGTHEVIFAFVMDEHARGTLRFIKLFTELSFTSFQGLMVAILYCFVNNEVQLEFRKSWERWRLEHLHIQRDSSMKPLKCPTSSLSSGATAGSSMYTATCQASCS

| SMILES | solubility at 2 h ([1]; pH 4.5) | solubility at 2 h ([1]; pH 7.4) | EC50 [2] | reduction of feed intake after 22 hours [3] | blood glucose compared to db/db control mice, 24 h profile [4] | Cmax [5] | half-life [5] | EC50 [6] | Cmax [7] | half-life [7] | EC50 [8] |
| --- | --- | --- | --- | --- | --- | --- | --- | --- | --- | --- | --- |
| CCCCCCCCCCCCCCCC(=O)N[C@@H](CCC(=O)NCCCC[C@H](NC(=O)[C@H](CCC(N)=O)NC(=O)[C@@H](NC(=O)[C@H](CO)NC(=O)[C@H](CC(C)C)NC(=O)[C@H](CC(=O)O)NC(=O)[C@H](CO)NC(=O)[C@@H](NC(=O)[C@H](Cc1ccccc1)NC(=O)[C@@H](NC(=O)CNC(=O)[C@H](CCC(=O)O)NC(=O)C(C)(C)NC(=O)[C@@H](N)Cc1ccc(O)cc1)[C@@H](C)O)[C@@H](C)O)[C@@H](C)CC)C(=O)N[C@@H](CC(=O)O)C(=O)N[C@@H](CCCCN)C(=O)N[C@@H](CCCNC(=N)N)C(=O)N[C@@H](C)C(=O)N[C@@H](C)C(=O)N[C@@H](CCC(N)=O)C(=O)N[C@@H](CC(=O)O)C(=O)N[C@@H](Cc1ccccc1)C(=O)N[C@H](C(=O)N[C@@H](CCC(=O)O)C(=O)N[C@@H](Cc1c[nH]c2ccccc12)C(=O)N[C@@H](CC(C)C)C(=O)N[C@@H](CCCCN)C(=O)N[C@@H](CC(N)=O)C(=O)NCC(=O)NCC(=O)N1CCC[C@H]1C(=O)N[C@@H](CO)C(=O)N[C@@H](CO)C(=O)NCC(=O)N[C@@H](C)C(=O)N1CCC[C@H]1C(=O)N1CCC[C@H]1C(=O)N1CCC[C@H]1C(=O)N[C@@H](CO)C(N)=O)[C@@H](C)CC)C(=O)O [SEQ ID NO: 12, Y-Aib-E-G-T-F-T-S-D-L-S-I-Q-K(γE-x53)-DKRAAQDFIEWLKNGGPSSGAPPPS-NH2] | > 1000 µg/mL | > 1000 µg/mL | 8.9 pM | 71% | significant decrease in blood glucose | 3790 ng/mL | 2.8 h | – | – | – | – |
| CCCCCCCCCCCCCCCC(=O)N[C@@H](CCC(=O)NCCCC[C@H](NC(=O)[C@H](CCC(N)=O)NC(=O)[C@@H](NC(=O)[C@H](CO)NC(=O)[C@H](CC(C)C)NC(=O)[C@H](CC(=O)O)NC(=O)[C@H](CO)NC(=O)[C@@H](NC(=O)[C@H](Cc1ccccc1)NC(=O)[C@@H](NC(=O)CNC(=O)[C@H](CCC(=O)O)NC(=O)C(C)(C)NC(=O)[C@@H](N)Cc1ccc(O)cc1)[C@@H](C)O)[C@@H](C)O)[C@@H](C)CC)C(=O)N[C@@H](CCC(=O)O)C(=O)N[C@@H](CCCCN)C(=O)N[C@@H](CCCNC(=N)N)C(=O)N[C@@H](C)C(=O)N[C@@H](C)C(=O)N[C@@H](CCC(N)=O)C(=O)N[C@@H](CCC(=O)O)C(=O)N[C@@H](Cc1ccccc1)C(=O)N[C@H](C(=O)N[C@@H](CCC(=O)O)C(=O)N[C@@H](Cc1c[nH]c2ccccc12)C(=O)N[C@@H](CC(C)C)C(=O)N[C@@H](CCCCN)C(=O)N[C@@H](C)C(=O)NCC(=O)NCC(=O)N1CCC[C@H]1C(=O)N[C@@H](CO)C(=O)N[C@@H](CO)C(=O)NCC(=O)N[C@@H](C)C(=O)N1CCC[C@H]1C(=O)N1CCC[C@H]1C(=O)N1CCC[C@H]1C(=O)N[C@@H](CO)C(N)=O)[C@@H](C)CC)C(=O)O [SEQ ID NO: 34, Y-Aib-E-G-T-F-T-S-D-L-S-I-Q-K(γE-x53)-EKRAAQEFIEWLKAGGPSSGAPPPS-NH2] (H-Y[Aib]EGTFTSDLSIQK([γGlu-Palmitoyl])EKRAAQEFIEWLKAGGPSSGAPPPS-NH2) | – | – | – | – | – | – | – | 4.6 pM | 5130 ng/mL | 2.8 h | 11600 pM |
